# Measurements as given in ChEMBL document CHEMBL3745716, “Synthesis, pharmacological assessment, molecular modeling and in silico studies of fused tricyclic coumarin derivatives as a new family of multifunctional anti-Alzheimer agents” (Eur J Med Chem, 2016).
# pIC50, pKi: −log10 of the molar value. Calls of active or inactive are those of the source. No cut-off for these calls is given here.
# Key:
# SK-N-SH [1] = assay: Neuroprotective activity against H2O2-induced cell death in human SK-N-SH cells assessed as cell viability preincubated for 3 hrs followed by H202 challenge after 24 hrs by MTT assay; type: functional, cell-based
# SK-N-SH [2] = assay: Neurotoxicity against human SK-N-SH cells assessed as cell viability at 40 uM after 24 hrs by MTT assay; type: toxicity, cell-based
# SK-N-SH [3] = assay: Neurotoxicity against human SK-N-SH cells assessed as cell viability at 80 uM after 24 hrs by MTT assay; type: toxicity, cell-based
# SK-N-SH [4] = assay: Neurotoxicity against human SK-N-SH cells assessed as cell viability at 120 uM after 24 hrs by MTT assay; type: toxicity, cell-based
# SK-N-SH [5] = assay: Neurotoxicity against human SK-N-SH cells assessed as cell viability at 160 uM after 24 hrs by MTT assay; type: toxicity, cell-based
# SK-N-SH [6] = assay: Neurotoxicity against human SK-N-SH cells assessed as cell viability at 200 uM after 24 hrs by MTT assay; type: toxicity, cell-based
# Acetylcholinesterase [7] = target: T1, Acetylcholinesterase (Electrophorus electricus, UniProt O42275); assay: Mixed-type inhibition of electric eel AChE using acetylthiocholine iodide as substrate assessed as enzyme-substrate complex preincubated for 5 mins followed by substrate addition measured over 6 mins by Lineweaver Burk plot analysis
# Acetylcholinesterase [8] = target: T1, Acetylcholinesterase; assay: Mixed-type inhibition of electric eel AChE using acetylthiocholine iodide as substrate assessed as free enzyme preincubated for 5 mins followed by substrate addition measured over 6 mins by Lineweaver Burk plot analysis
# Mus musculus = assay: In vivo inhibition of AChE in ip dosed BALB/c ByJ mouse brain assessed as hydrolysis of acetylthiocholine iodide after 48 hrs by Ellman's method; type: functional, organism-based
# [9] = target: Acetylcholinesterase (Electrophorus electricus) (UniProt O42275); assay: Potency index, ratio of galantamine IC50 to compound IC50 for electric eel AChE
# [10] = Potency index, ratio of trolox IC50 to compound IC50 for ABTS radical scavenging activity
# Acetylcholinesterase [11] = target: T1, Acetylcholinesterase
# Description: Inhibition of electric eel AChE using acetylthiocholine iodide as substrate preincubated for 5 mins followed by substrate addition measured after 5 mins by Ellman's method
# Cholinesterase = Cholinesterase (Equus caballus, UniProt P81908)
# Sequence of Cholinesterase (P81908 whole entry): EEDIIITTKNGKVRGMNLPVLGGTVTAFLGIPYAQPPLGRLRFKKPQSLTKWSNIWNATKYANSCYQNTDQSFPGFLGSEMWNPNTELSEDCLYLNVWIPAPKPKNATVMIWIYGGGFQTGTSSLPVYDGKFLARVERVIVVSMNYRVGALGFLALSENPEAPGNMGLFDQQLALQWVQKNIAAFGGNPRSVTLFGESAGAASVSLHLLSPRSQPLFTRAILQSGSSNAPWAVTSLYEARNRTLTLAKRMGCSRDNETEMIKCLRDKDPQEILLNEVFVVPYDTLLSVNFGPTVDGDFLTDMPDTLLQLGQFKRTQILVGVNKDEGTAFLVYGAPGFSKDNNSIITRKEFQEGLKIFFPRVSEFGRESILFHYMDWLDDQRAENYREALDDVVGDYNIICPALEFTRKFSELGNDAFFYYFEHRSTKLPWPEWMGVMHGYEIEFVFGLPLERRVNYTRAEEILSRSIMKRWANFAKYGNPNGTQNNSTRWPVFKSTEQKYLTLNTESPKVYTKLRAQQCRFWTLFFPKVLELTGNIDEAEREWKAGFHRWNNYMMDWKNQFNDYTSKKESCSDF
# Description: Inhibition of horse serum butyrylcholinesterase using butyrylthiocholine iodide as substrate preincubated for 5 mins followed by substrate addition measured after 5 mins by Ellman's method
# Sequence of Acetylcholinesterase (Electrophorus electricus) (O42275 24-633 limits assumed): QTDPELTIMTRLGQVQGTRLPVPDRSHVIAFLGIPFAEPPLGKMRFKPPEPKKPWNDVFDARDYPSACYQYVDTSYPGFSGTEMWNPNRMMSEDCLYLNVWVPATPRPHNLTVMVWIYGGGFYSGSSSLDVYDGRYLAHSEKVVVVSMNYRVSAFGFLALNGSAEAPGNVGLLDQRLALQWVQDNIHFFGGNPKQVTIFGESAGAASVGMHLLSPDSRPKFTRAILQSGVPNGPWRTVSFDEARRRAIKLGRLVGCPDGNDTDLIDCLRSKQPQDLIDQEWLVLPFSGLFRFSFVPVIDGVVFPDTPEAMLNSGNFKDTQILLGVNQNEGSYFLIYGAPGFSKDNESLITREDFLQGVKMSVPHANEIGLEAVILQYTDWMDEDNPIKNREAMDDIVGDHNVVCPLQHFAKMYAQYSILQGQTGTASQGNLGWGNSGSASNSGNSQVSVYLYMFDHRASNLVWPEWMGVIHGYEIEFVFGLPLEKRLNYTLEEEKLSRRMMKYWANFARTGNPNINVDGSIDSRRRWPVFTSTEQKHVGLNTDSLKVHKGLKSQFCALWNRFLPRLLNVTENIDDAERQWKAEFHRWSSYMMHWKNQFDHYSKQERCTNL
# T1 sequence (O42275 whole entry): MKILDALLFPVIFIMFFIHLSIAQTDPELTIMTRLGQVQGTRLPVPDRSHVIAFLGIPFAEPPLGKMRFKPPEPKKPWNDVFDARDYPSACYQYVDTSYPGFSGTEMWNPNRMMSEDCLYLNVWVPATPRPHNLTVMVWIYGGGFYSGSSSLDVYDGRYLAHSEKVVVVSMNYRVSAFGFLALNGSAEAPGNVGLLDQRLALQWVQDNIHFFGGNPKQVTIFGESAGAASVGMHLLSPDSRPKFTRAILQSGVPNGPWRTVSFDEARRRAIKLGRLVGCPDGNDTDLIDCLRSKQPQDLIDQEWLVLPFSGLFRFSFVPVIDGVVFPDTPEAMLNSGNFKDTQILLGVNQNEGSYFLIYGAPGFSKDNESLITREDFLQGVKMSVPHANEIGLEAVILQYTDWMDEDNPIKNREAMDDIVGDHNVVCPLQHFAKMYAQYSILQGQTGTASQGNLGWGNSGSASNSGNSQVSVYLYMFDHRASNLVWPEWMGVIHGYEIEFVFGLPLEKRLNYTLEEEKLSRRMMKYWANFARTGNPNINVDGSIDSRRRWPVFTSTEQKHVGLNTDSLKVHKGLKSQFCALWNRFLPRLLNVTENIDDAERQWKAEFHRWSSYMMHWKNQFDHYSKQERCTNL
SMILES,Activity (SK-N-SH [1]),Activity (SK-N-SH [2]),Activity (SK-N-SH [3]),Activity (SK-N-SH [4]),Activity (SK-N-SH [5]),Activity (SK-N-SH [6]),pKi (Acetylcholinesterase [7]),pKi (Acetylcholinesterase [8]),inhibition (Mus musculus),Ratio IC50 [9],Ratio IC50 [10],pIC50 (Acetylcholinesterase [11]),pIC50 (Cholinesterase),pIC50
Cc1cc(=O)oc2c1ccc1oc(=N)c(C(=O)NCc3cccc(Br)c3)cc12,Dose-dependent effect,Toxic,Toxic,Toxic,Toxic,Toxic,7.71,7.99,Active,2,1.7,8.52,< 4.00,5.10
CCNC(=O)c1cc2c(ccc3c(C)cc(=O)oc32)oc1=N,,,,,,,,,,2,,6.53,4.95,< 4.30
Cc1cc(=O)oc2c1ccc1oc(=N)c(C(=O)NC3CC3)cc12,,,,,,,,,,,,6.04,4.41,< 4.30
CCCCCCCCCCCCNC(=O)c1cc2c(ccc3c(C)cc(=O)oc32)oc1=N,,,,,,,,,,2,,7.66,< 4.00,< 4.30
CNC(=O)c1cc2c(ccc3c(C)cc(=O)oc32)oc1=N,,,,,,,,,,,,5.85,< 4.00,4.47
Cc1c(C)c2c(c(C)c1O)CCC(C)(C(=O)O)O2 (stereo unspecified) [TROLOX],,,,,,,,,,,,,,4.56
Cc1cc(=O)oc2c1ccc1oc(=N)c(C(=O)NC(C)c3ccccc3)cc12 (stereo unspecified),,,,,,,,,,2,1.7,6.61,4.45,4.85
Cc1cc(=O)oc2c1ccc1oc(=N)c(C(=O)N3CCCC3)cc12,,,,,,,,,,2,,6.01,4.14,< 4.30
Cc1cc(=O)oc2c1ccc1oc(=N)c(C(=O)NC3CCCCC3)cc12,,,,,,,,,,2,,7.57,4.38,< 4.30
Cc1cc(=O)oc2c1ccc1oc(=N)c(C(=O)Nc3ccccc3[N+](=O)[O-])cc12,,,,,,,,,,2,,6.65,< 4.00,< 4.30
Cc1cc(=O)oc2c1ccc1oc(=N)c(C(=O)NCc3ccc(C(C)(C)C)cc3)cc12,Dose-dependent effect,Toxic,Toxic,Toxic,Toxic,Toxic,,,,2,1.7,8.00,4.24,4.87
Cc1cc(=O)oc2c1ccc1oc(=N)c(C(=O)NCc3ccccc3)cc12,,,,,,,,,,2,,5.67,< 4.00,< 4.30
Cc1cc(=O)oc2c1ccc1oc(=N)c(C(=O)NCc3ccccc3Cl)cc12,Dose-dependent effect,Non-toxic,Non-toxic,Non-toxic,Non-toxic,Non-toxic,,,,2,1.7,7.92,< 4.00,4.80
Cc1cc(=O)oc2c1ccc1oc(=N)c(C(=O)NCc3ccccc3Br)cc12,Dose-dependent effect,Non-toxic,Non-toxic,Non-toxic,Non-toxic,Non-toxic,,,,2,1.7,7.80,< 4.00,4.92
Cc1cc(=O)oc2c1ccc1oc(=N)c(C(=O)NCc3cccc(Cl)c3)cc12,Dose-dependent effect,Non-toxic,Non-toxic,Non-toxic,Non-toxic,Non-toxic,,,,2,1.7,7.72,< 4.00,4.99
COc1ccc(C(C)NC(=O)c2cc3c(ccc4c(C)cc(=O)oc43)oc2=N)cc1 (stereo unspecified),,,,,,,,,,,1.7,5.72,,5.04
COc1ccccc1OCCNC(=O)c1cc2c(ccc3c(C)cc(=O)oc32)oc1=N,,,,,,,,,,,,5.59,4.61,4.89
COc1ccc(CNC(=O)c2cc3c(ccc4c(C)cc(=O)oc43)oc2=N)c(OC)c1,,,,,,,,,,2,,6.45,< 4.00,< 4.30
Cc1cc(=O)oc2c1ccc1oc(=N)c(C(=O)N3CCOCC3)cc12,,,,,,,,,,2,1.7,6.94,,4.95
Cc1cc(=O)oc2c1ccc1oc(=N)c(C(=O)NC(c3ccccc3)c3ccccc3)cc12,,,,,,,,,,2,,7.05,,< 4.30
